From PubChem BioAssay (NCI) come the findings set out here.

SMILES strings stand for the structures.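 Step 1: Grow cells in 96-well plates. Step 2: Expose to compound for 48 hours at 5 concentrations. Step 3: Interpolate endpoints linearly; if unreached, use highest concentration. Definition used: TGI = concentration required for complete inhibition of growth.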

Some test systems named below: MDA-MB-435; NCI-H23 lung; M14 melanoma; SNB-19 CNS; SW-620 colon; OVCAR-5 ovarian; MALME-3M melanoma; HOP-62 NSCLC; ACHN renal; MDA-MB-231 breast; RPMI-8226 leukemia; RXF 393 renal; U251 CNS; HOP-92 NSCLC; CCRF-CEM leukemia; HS 578T breast.
What all share (assay): inhibition of tumour cell growth, NCI panel, 48 h

With `CNC(=O)CCNC(=O)CCC(=O)N(C)C`, the TGI in the experiment with MDA-MB-435, in the experiment with NCI-H23 lung, in the experiment with M14 melanoma, in the experiment on SNB-19 CNS, with SW-620 colon and with OVCAR-5 ovarian was > 100 µM in each case. Moreover, the TGI in the experiment on MALME-3M melanoma, with HOP-62 NSCLC, with ACHN renal, in the experiment on MDA-MB-231 breast, with RPMI-8226 leukemia and in the experiment with RXF 393 renal was > 100 µM throughout. Moreover, in the experiment with U251 CNS, the TGI was > 100 µM.
Consider `O=C1CSC(/C(=C/c2ccccc2)c2nc3ccccc3[nH]2)=N1`, for which the TGI in the experiment on HOP-92 NSCLC is > 100 µM; in the experiment with NCI-H23 lung it was 92.7 µM; with M14 melanoma, > 100 µM; in the experiment on SNB-19 CNS, > 100 µM; in the experiment with SW-620 colon, > 100 µM; with CCRF-CEM leukemia, > 100 µM. In addition, the TGI with OVCAR-5 ovarian is > 100 µM; in the experiment with MALME-3M melanoma, > 100 µM; in the experiment with HOP-62 NSCLC, > 100 µM; in the experiment with ACHN renal it was > 100 µM; with U251 CNS, 74.4 µM.
In the case of `CC1(c2cccc3c2C2(O)C=CC4(CCC32)OCCO4)OCCO1` (stereo not given), the TGI in the experiment on NCI-H23 lung, in the experiment with M14 melanoma, with SNB-19 CNS, in the experiment with SW-620 colon, in the experiment with CCRF-CEM leukemia and in the experiment on OVCAR-5 ovarian was > 100 µM each time. Besides, the TGI in the experiment on MALME-3M melanoma, with HOP-62 NSCLC, in the experiment on ACHN renal, in the experiment with RPMI-8226 leukemia, with RXF 393 renal and in the experiment on U251 CNS was > 100 µM in each case.
Take `NCCC(=O)N[C@H](Cc1cc(O)c(O)c(SCC(NC(=O)CC[C@H](N)C(=O)O)C(=O)NCC(=O)O)c1)C(=O)O` (stereo not given in full): the TGI with MDA-MB-435, in the experiment on HOP-92 NSCLC, with NCI-H23 lung, in the experiment on M14 melanoma, with SNB-19 CNS and with SW-620 colon was > 50 µM in each case. In addition, the TGI with OVCAR-5 ovarian, with MALME-3M melanoma, with HOP-62 NSCLC, in the experiment with ACHN renal, in the experiment on MDA-MB-231 breast and in the experiment on RPMI-8226 leukemia was > 50 µM each time. Moreover, the TGI in the experiment with RXF 393 renal and with U251 CNS was > 50 µM throughout.
For the compound `N=C(N)C1CN(CCc2cnc[nH]2)C(=O)NC1=O` (stereo not given), the TGI in the experiment on MDA-MB-435, with HOP-92 NSCLC, in the experiment on NCI-H23 lung, in the experiment with M14 melanoma, with SNB-19 CNS and with HS 578T breast was > 100 µM each time. For the same compound, the TGI with SW-620 colon, in the experiment on CCRF-CEM leukemia, in the experiment with OVCAR-5 ovarian, in the experiment with MALME-3M melanoma, in the experiment with HOP-62 NSCLC and in the experiment on ACHN renal was > 100 µM each time. Further, the TGI in the experiment with RPMI-8226 leukemia, in the experiment on RXF 393 renal and in the experiment on U251 CNS was > 100 µM in each case.
Regarding `O=C(CC(=O)C(=O)Nc1ccccc1)CC(c1ccccc1)c1c(O)c2ccccc2oc1=O` (stereo not given), the TGI in the experiment with HOP-92 NSCLC, in the experiment with M14 melanoma, with SNB-19 CNS, with SW-620 colon, with CCRF-CEM leukemia and in the experiment on OVCAR-5 ovarian was > 100 µM in each case. For the same compound, the TGI in the experiment on MALME-3M melanoma, in the experiment with ACHN renal and in the experiment on RXF 393 renal was > 100 µM each time.
As to `COc1ccc(N(C)CN(C)c2nc(N(C)C)nc(N(C)C)n2)cc1`, the TGI with HOP-92 NSCLC, in the experiment on NCI-H23 lung, in the experiment on M14 melanoma, in the experiment with SNB-19 CNS, in the experiment on SW-620 colon and with CCRF-CEM leukemia was > 100 µM each time. Moreover, the TGI in the experiment on OVCAR-5 ovarian, in the experiment with MALME-3M melanoma, in the experiment with HOP-62 NSCLC, in the experiment with ACHN renal, in the experiment with RPMI-8226 leukemia and in the experiment on U251 CNS was > 100 µM in each case.
With `COC1(C(C)(C)C)C=C(C(C)(C)C)P(=O)(O)O1` (stereo not given), the TGI in the experiment with MDA-MB-435, in the experiment with HOP-92 NSCLC, with NCI-H23 lung, with M14 melanoma, in the experiment on SNB-19 CNS and in the experiment with HS 578T breast was > 100 µM in each case. The TGI with SW-620 colon, with OVCAR-5 ovarian, with MALME-3M melanoma, in the experiment on HOP-62 NSCLC, in the experiment on ACHN renal and with RPMI-8226 leukemia was > 100 µM each time. Further, in the experiment on U251 CNS, the TGI was > 100 µM.
As for `COC(=O)Nc1nc2ccc(Oc3ccc4nc(NC(=O)OC)[nH]c4c3)cc2[nH]1`, the TGI with MDA-MB-435 is 0.166 µM; with HOP-92 NSCLC it was > 100 µM; with NCI-H23 lung, > 100 µM; in the experiment on M14 melanoma it was > 29.6 µM; in the experiment on SNB-19 CNS it was > 100 µM; in the experiment with SW-620 colon, 11.2 µM. Further, the TGI with OVCAR-5 ovarian was > 100 µM; in the experiment on MALME-3M melanoma, > 100 µM; in the experiment on HOP-62 NSCLC it was 45.6 µM; in the experiment with ACHN renal, > 100 µM; in the experiment on MDA-MB-231 breast, 11 µM; in the experiment on RPMI-8226 leukemia, > 26.7 µM. Further, the TGI with RXF 393 renal was > 22.8 µM; in the experiment with U251 CNS, 10.9 µM.
As for `CC1=CCC2(C#N)CCC1C2O` (stereo not given), the TGI with M14 melanoma, in the experiment with SNB-19 CNS, in the experiment on CCRF-CEM leukemia, in the experiment on OVCAR-5 ovarian, in the experiment on MALME-3M melanoma and with HOP-62 NSCLC was > 100 µM throughout. Also, the TGI with ACHN renal, with RPMI-8226 leukemia, with RXF 393 renal and in the experiment on U251 CNS was > 100 µM each time.
Take `COC(=O)C1CC(=O)CCC1c1ccccc1` (stereo not given): the TGI in the experiment on HOP-92 NSCLC, in the experiment with NCI-H23 lung, in the experiment on M14 melanoma, in the experiment on SNB-19 CNS, in the experiment on SW-620 colon and in the experiment on CCRF-CEM leukemia was > 100 µM each time. The TGI in the experiment on OVCAR-5 ovarian, with MALME-3M melanoma, in the experiment with HOP-62 NSCLC, in the experiment on ACHN renal, in the experiment on RPMI-8226 leukemia and in the experiment with U251 CNS was > 100 µM throughout.
